Reference: ChEMBL document CHEMBL4373683, “Dual-target inhibitors of mycobacterial aminoacyl-tRNA synthetases among N-benzylidene-N'-thiazol-2-yl-hydrazines” (Medchemcomm, 2019)
In brackets after ≈: the same amount, converted by molar mass.

Legend:
[1] = test system: Mycobacterium tuberculosis H37Rv; assay: (§1) Inhibition of recombinant Mycobacterium tuberculosis H37Rv C-terminal His6-tagged MetRS expressed in Escherichia coli BL21 (DE3) Star cells at 100 uM incubated for 30 mins followed by incubation with ATP, methionine, tRNA, iPPase for 10 mins and measured after 30 mins by BIOMOL Green reagent based plate reader analysis relative to control
[2] = molecular target: T1, Leucine--tRNA ligase (Mycobacterium tuberculosis (strain ATCC 25618 / H37Rv)) (UniProt P9WFV1); assay: Inhibition of Mycobacterium tuberculosis LeuRS expressed in Escherichia coli Rosetta (DE3) cells at 100 uM incubated for 30 mins followed by incubation with ATP, leucine, tRNA, iPPase for 10 mins and measured after 30 mins by BIOMOL Green reagent based plate reader analysis relative to control
T1 sequence (whole entry): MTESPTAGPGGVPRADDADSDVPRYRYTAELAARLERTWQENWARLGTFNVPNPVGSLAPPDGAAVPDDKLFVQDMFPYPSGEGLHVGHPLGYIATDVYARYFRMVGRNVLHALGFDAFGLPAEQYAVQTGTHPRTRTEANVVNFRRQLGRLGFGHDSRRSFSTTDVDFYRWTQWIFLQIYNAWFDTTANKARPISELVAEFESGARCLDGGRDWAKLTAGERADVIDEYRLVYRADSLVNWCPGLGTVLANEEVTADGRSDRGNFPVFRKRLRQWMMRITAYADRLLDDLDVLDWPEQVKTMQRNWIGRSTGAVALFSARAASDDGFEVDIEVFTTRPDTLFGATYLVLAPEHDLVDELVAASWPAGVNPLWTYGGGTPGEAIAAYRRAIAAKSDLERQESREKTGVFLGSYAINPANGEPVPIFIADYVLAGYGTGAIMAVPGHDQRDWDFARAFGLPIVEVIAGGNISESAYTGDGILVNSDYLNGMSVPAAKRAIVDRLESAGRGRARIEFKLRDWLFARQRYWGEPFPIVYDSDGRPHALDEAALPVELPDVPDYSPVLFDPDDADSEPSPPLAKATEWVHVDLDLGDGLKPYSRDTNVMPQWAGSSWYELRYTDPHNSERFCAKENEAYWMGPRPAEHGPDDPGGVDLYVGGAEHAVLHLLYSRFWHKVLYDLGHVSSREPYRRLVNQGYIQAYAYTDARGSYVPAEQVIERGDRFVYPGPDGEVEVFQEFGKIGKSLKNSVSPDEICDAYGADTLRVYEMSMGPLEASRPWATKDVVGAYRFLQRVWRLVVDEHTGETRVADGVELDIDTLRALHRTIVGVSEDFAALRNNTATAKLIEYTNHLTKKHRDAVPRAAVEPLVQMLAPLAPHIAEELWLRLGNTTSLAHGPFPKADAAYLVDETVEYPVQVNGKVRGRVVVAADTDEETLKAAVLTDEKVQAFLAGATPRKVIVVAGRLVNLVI

Saccharomyces cerevisiae = assay: Inhibition of yeast inorganic pyrophosphatase assessed as inhibition of BIOMOL-Green signal using inorganic pyrophosphate as substrate at 50 uM incubated for 10 mins in MtbMetRS reaction buffer and measured after 30 mins by BIOMOL-Green reagent based plate reader analysis
[3] = Inhibition of BIOMOL-Green signal at 50 uM in MtbMetRS reaction buffer in presence of 10 uM phosphate standard measured after 30 mins by plate reader analysis
[4] = as §1, with “cells” for “cells at 100 uM”, “analysis” for “analysis relative to control”
Leucine--tRNA ligase = molecular target: T2, Leucine--tRNA ligase (Mycobacterium tuberculosis (strain ATCC 25618 / H37Rv), UniProt P9WFV1); assay: Inhibition of Mycobacterium tuberculosis LeuRS expressed in Escherichia coli Rosetta (DE3) cells incubated for 30 mins followed by incubation with ATP, leucine, tRNA, iPPase for 10 mins and measured after 30 mins by BIOMOL Green reagent based plate reader analysis
T2 sequence (P9WFV1 whole entry): T1 sequence (whole entry)

[5] = test system: Mycobacterium tuberculosis; format: functional; conditions: H37Rv ATCC 27294, 336 h
[6] = test system: Mycobacterium tuberculosis; format: functional; conditions: H37Rv ATCC 27294, 168 h
[7] = test system: Mycobacterium tuberculosis; format: functional; conditions: H37Rv ATCC 27294, 168 h; remark: listed apart in the source
[8] = test system: Mycobacterium tuberculosis; format: functional; conditions: H37Rv ATCC 27294, 336 h; remark: listed apart in the source
[9] = test system: Mycobacterium tuberculosis; format: functional; conditions: H37Rv ATCC 27294, 168 h; remark: listed apart in the source
[10] = test system: Mycobacterium tuberculosis; format: functional; conditions: H37Rv ATCC 27294, 336 h; remark: listed apart in the source
[11] = test system: Mycobacterium tuberculosis; format: functional; conditions: H37Rv ATCC 27294, 168 h; remark: listed apart in the source
[12] = test system: Mycobacterium tuberculosis; format: functional; conditions: H37Rv ATCC 27294, 336 h; remark: listed apart in the source
[13] = Cytotoxicity against human HepG2 cells assessed as reduction in cell viability incubated for 72 hrs by MTT assay; format: cell-based
[14] = Cytotoxicity against human HEK293 cells assessed as reduction in cell viability incubated for 72 hrs by MTT assay; format: cell-based

## Cc1csc(N/N=C/c2ccc([N+](=O)[O-])cc2)n1
[1]
  inhibition: 92%
[2]
  inhibition: 20%

## CCOC(=O)c1sc(N/N=C/c2cc(Br)c(O)c(Br)c2)nc1C
[1]
  inhibition: 51%
[2]
  inhibition: 55%

## CCOC(=O)c1sc(N/N=C/c2ccc(Br)cc2)nc1C
[1]
  inhibition: 111%
Saccharomyces cerevisiae
  inhibition: < 35%
[3]
  inhibition: < 35%
[2]
  inhibition: 39%

## Cc1csc(N/N=C/c2cc(Br)ccc2O)n1
[1]
  inhibition: 113%
[2]
  inhibition: 39%

## CCOC(=O)c1sc(N/N=C/c2ccccc2Br)nc1C
[1]
  inhibition: 99%
[2]
  inhibition: 67%

## Brc1ccccc1/C=N/Nc1nc(-c2ccccc2)cs1
[4]; read-out: IC50
  IC50: 37.5 µM
Leucine--tRNA ligase
  IC50: 24.1 µM

## NNC(=O)c1ccncc1 [ISONIAZID]
[5]
  MIC: 0.3 µM (≈ 0.0411 µg/mL)
[6]
  MIC: 0.6 µM (≈ 0.0823 µg/mL)
[7]
  MIC: 0.1 µM (≈ 0.0137 µg/mL)
[8]
  MIC: 0.6 µM (≈ 0.0823 µg/mL)
[9]
  MIC: 0.07 µM (≈ 0.0096 µg/mL)
[10]
  MIC: 0.1 µM (≈ 0.0137 µg/mL)
[11]
  MIC: 0.39 µM (≈ 0.0535 µg/mL)
[12]
  MIC: 0.39 µM (≈ 0.0535 µg/mL)

## CCOC(=O)Cc1csc(N/N=C/c2ccc(C(=O)O)cc2)n1
[1]
  inhibition: 22%
[2]
  inhibition: 12%

## O=C(O)c1ccc(/C=N/Nc2nc(-c3ccc(Cl)cc3Cl)cs2)cc1
[5]
  MIC: > 50 µM
[1]
  inhibition: 92%
[4]; read-out: IC50
  IC50: 22.7 µM
[6]
  MIC: > 50 µM
[7]
  MIC: > 50 µM
[8]
  MIC: > 50 µM
[9]
  MIC: > 50 µM
[10]
  MIC: > 50 µM
Leucine--tRNA ligase
  IC50: 27.3 µM
[2]
  inhibition: 101%
[11]
  MIC: > 50 µM
[12]
  MIC: > 50 µM

## CCc1ccc(/C=N/Nc2nc(-c3cccc([N+](=O)[O-])c3)cs2)cc1
[1]
  inhibition: 27%
[2]
  inhibition: 3%

## COc1ccc(/C=N/Nc2nc(C)cs2)cc1Br
[4]
  IC50: Not Active
Leucine--tRNA ligase
  IC50: 95 µM

## CCOC(=O)c1sc(N/N=C/c2ccc(C(=O)O)cc2)nc1C
[1]
  inhibition: 6%
[2]
  inhibition: -7%

## CN(C)c1ccc(/C=N/Nc2nc(-c3ccccc3)cs2)cc1
[1]
  inhibition: 123%
Saccharomyces cerevisiae
  inhibition: < 35%
[3]
  inhibition: < 35%
[2]
  inhibition: 65%

## COC(=O)c1sc(N/N=C/c2ccc([N+](=O)[O-])cc2)nc1C
[1]
  inhibition: 75%
[2]
  inhibition: 88%

## Cc1csc(N/N=C/c2ccccc2Br)n1
[4]; read-out: IC50
  IC50: 123 µM
Leucine--tRNA ligase
  IC50: 38.4 µM

## COc1ccc(/C=N/Nc2nc(C)c(C)s2)cc1
[1]
  inhibition: 1%
[2]
  inhibition: 1%

## COc1cc(/C=N/Nc2nccs2)cc(Br)c1OCc1ccccc1
[1]
  inhibition: 106%
Saccharomyces cerevisiae
  inhibition: < 35%
[3]
  inhibition: < 35%
[2]
  inhibition: 55%

## COc1cc(/C=N/Nc2nc(-c3ccc(Br)cc3)cs2)cc([N+](=O)[O-])c1O
[1]
  inhibition: 110%
Saccharomyces cerevisiae
  inhibition: < 35%
[3]
  inhibition: < 35%
[2]
  inhibition: 113%

## COc1cc(/C=N/Nc2nc(C)c(C(C)=O)s2)ccc1OCc1ccccc1Cl
[1]
  inhibition: 113%
Saccharomyces cerevisiae
  inhibition: < 35%
[3]
  inhibition: < 35%
[2]
  inhibition: 87%

## O=[N+]([O-])c1ccccc1/C=N/Nc1nccs1
[1]
  inhibition: 51%
[2]
  inhibition: 45%

## COC(=O)c1sc(N/N=C/c2ccc(Br)cc2)nc1C
[1]
  inhibition: 88%
Saccharomyces cerevisiae
  inhibition: < 35%
[3]
  inhibition: < 35%
[2]
  inhibition: 46%

## CCOc1ccc(/C=N/Nc2nc(C)c(C(C)=O)s2)cc1
[1]
  inhibition: 53%
[2]
  inhibition: 20%

## O=[N+]([O-])c1cccc(-c2csc(N/N=C/c3ccccc3Br)n2)c1
[5]
  MIC: > 50 µM
[1]
  inhibition: 93%
[4]; read-out: IC50
  IC50: 6.5 µM
[6]
  MIC: ≥ 50 µM
[7]
  MIC: > 50 µM
[8]
  MIC: > 50 µM
[9]
  MIC: 37 µM (≈ 14.9 µg/mL)
[10]
  MIC: > 50 µM
Leucine--tRNA ligase
  IC50: 8.9 µM
[2]
  inhibition: 80%
[11]
  MIC: 37 µM (≈ 14.9 µg/mL)
[12]
  MIC: 50 µM (≈ 20.2 µg/mL)

## COc1ccc(/C=N/Nc2nccs2)cc1Br
[1]
  inhibition: 90%
[2]
  inhibition: 29%

## COc1cccc(/C=N/Nc2nc(C)cs2)c1OC
[1]
  inhibition: 25%
[2]
  inhibition: 17%

## COC(=O)c1sc(N/N=C/c2ccc(C(=O)O)cc2)nc1C
[2]
  inhibition: 12%

## O=[N+]([O-])c1cc(/C=N/Nc2nc(-c3ccccc3)cs2)ccc1O
[1]
  inhibition: 72%
Saccharomyces cerevisiae
  inhibition: < 35%
[3]
  inhibition: < 35%
[2]
  inhibition: 53%

## Oc1ccccc1/C=N/Nc1nc(-c2ccccc2)cs1
[1]
  inhibition: 51%
[2]
  inhibition: 7%

## CCOC(=O)c1sc(N/N=C/c2cc(Br)c(O)c(OC)c2)nc1C
[1]
  inhibition: 94%
[2]
  inhibition: 54%

## COc1cc(/C=N/Nc2nccs2)ccc1OC(=O)c1ccc(Cl)cc1Cl
[1]
  inhibition: 142%
Saccharomyces cerevisiae
  inhibition: < 35%
[3]
  inhibition: < 35%
[2]
  inhibition: 73%

## O=[N+]([O-])c1cccc(-c2csc(N/N=C/c3cccc(Oc4ccccc4)c3)n2)c1
[1]
  inhibition: 65%
[2]
  inhibition: 11%

## COc1ccc(OC)c(/C=N/Nc2nc(-c3cccnc3)cs2)c1
[1]
  inhibition: 115%
[2]
  inhibition: 74%

## COc1cc(/C=N/Nc2nccs2)ccc1OCc1ccccc1Cl
[1]
  inhibition: 102%
Saccharomyces cerevisiae
  inhibition: < 35%
[3]
  inhibition: < 35%
[2]
  inhibition: 64%

## CCOC(=O)c1sc(N/N=C/c2ccccc2C(F)(F)F)nc1C
[1]
  inhibition: 45%
[2]
  inhibition: 34%

## CCCCCCOc1ccc(/C=N/Nc2nccs2)cc1OC
[1]
  inhibition: 62%
[2]
  inhibition: 47%

## Cc1csc(N/N=C/c2ccc(C(=O)O)cc2)n1
[2]
  inhibition: -4%

## COc1cc(/C=N/Nc2nc(-c3ccc([N+](=O)[O-])cc3)cs2)cc([N+](=O)[O-])c1O
[5]
  MIC: ≥ 50 µM
[1]
  inhibition: 94%
[4]; read-out: IC50
  IC50: 4.2 µM
[6]
  MIC: 50 µM (≈ 20.8 µg/mL)
[7]
  MIC: 50 µM (≈ 20.8 µg/mL)
[8]
  MIC: > 50 µM
[9]
  MIC: > 50 µM
[10]
  MIC: > 50 µM
Leucine--tRNA ligase
  IC50: 5.8 µM
[2]
  inhibition: 103%
[11]
  MIC: ≥ 50 µM
[12]
  MIC: > 50 µM

## CCOC(=O)c1sc(N/N=C/c2cccc(O)c2)nc1C
[1]
  inhibition: 71%
[2]
  inhibition: 1%

## Cc1sc(N/N=C/c2cccc(O)c2)nc1-c1ccccc1
[1]
  inhibition: 112%
Saccharomyces cerevisiae
  inhibition: < 35%
[3]
  inhibition: < 35%
[2]
  inhibition: 65%

## COc1ccc(/C=N/Nc2nc(-c3ccc(F)cc3)cs2)cc1Br
[5]
  MIC: 2.3 µM (≈ 0.934 µg/mL)
[1]
  inhibition: 121%
[13]
  CC50 at 72 h: > 100 µM
[4]; read-out: IC50
  IC50: 10.7 µM
[6]
  MIC: 19 µM (≈ 7.72 µg/mL)
[7]
  MIC: 1.56 µM (≈ 0.634 µg/mL)
[8]
  MIC: 37 µM (≈ 15 µg/mL)
[9]
  MIC: 0.78 µM (≈ 0.317 µg/mL)
[10]
  MIC: 2.3 µM (≈ 0.934 µg/mL)
Leucine--tRNA ligase
  IC50: 12.5 µM
[2]
  inhibition: 109%
[11]
  MIC: 9.4 µM (≈ 3.82 µg/mL)
[14]
  CC50 at 72 h: > 100 µM
[12]
  MIC: 25 µM (≈ 10.2 µg/mL)

## CCOC(=O)c1sc(N/N=C/c2ccccc2)nc1C
[1]
  inhibition: 73%
[2]
  inhibition: 19%
